Assays:
[1] = molecular target: CDK19/cyclin C (Homo sapiens, UniProt Q9BWU1); settings: 1 μM; Run 1, Run 2
[2] = molecular target: T1, MEKK3 (Homo sapiens, UniProt Q99759); settings: 1 μM; Run 1, Run 2
T1 sequence (Q99759 1-626): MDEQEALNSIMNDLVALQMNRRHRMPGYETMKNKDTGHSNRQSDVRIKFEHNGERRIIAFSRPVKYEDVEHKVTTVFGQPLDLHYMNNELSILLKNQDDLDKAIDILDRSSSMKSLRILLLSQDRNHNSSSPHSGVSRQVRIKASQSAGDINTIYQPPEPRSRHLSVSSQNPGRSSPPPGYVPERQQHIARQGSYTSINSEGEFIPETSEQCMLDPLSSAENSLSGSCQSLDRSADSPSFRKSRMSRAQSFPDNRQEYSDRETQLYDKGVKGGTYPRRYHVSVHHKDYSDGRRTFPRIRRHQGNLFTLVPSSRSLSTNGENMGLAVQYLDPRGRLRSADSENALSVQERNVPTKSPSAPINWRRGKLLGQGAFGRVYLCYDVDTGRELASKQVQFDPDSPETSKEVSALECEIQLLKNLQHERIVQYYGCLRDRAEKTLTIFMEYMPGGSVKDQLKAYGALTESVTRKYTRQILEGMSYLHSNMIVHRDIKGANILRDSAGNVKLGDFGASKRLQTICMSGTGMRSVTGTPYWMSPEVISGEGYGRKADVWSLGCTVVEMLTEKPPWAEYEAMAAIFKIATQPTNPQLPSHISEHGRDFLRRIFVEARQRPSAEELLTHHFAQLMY

[3] = molecular target: T2, PRKX (Homo sapiens, UniProt P51817); settings: 1 μM; Run 1, Run 2
T2 sequence (P51817 1-358): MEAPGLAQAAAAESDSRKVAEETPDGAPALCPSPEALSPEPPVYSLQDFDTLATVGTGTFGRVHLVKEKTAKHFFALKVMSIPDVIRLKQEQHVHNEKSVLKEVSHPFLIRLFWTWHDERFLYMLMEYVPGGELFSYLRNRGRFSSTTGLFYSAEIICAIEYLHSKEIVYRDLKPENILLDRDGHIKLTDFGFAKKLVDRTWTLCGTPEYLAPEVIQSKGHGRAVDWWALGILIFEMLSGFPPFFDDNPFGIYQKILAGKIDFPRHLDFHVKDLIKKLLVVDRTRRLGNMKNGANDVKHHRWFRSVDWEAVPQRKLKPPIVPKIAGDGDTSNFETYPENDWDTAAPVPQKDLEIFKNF

[4] = molecular target: T3, SGK1 (Homo sapiens, UniProt O00141); settings: 1 μM; Run 1, Run 2
T3 sequence (O00141 1-431): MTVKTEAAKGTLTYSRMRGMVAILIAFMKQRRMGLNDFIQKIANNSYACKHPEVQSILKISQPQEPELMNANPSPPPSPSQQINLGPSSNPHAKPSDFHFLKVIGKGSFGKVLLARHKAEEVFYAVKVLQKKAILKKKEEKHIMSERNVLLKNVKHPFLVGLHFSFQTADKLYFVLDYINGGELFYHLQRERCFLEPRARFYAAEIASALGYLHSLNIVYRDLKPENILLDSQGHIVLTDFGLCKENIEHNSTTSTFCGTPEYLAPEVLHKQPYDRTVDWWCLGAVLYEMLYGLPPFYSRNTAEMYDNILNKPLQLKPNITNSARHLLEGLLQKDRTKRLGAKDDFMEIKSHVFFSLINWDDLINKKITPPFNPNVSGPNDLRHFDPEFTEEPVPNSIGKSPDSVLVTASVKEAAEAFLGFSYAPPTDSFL

[5] = molecular target: CAMK1g (Homo sapiens, UniProt Q96NX5); test: biochemical; settings: read-out: % enzyme activity, 1 μM; Run 1, Run 2
[6] = molecular target: CDK17/cyclin Y (PCTK2) (Homo sapiens, UniProt Q00537); test: biochemical; settings: read-out: % enzyme activity, 1 μM; Run 1, Run 2
[7] = molecular target: LRRK2 (Homo sapiens, UniProt Q5S007); test: biochemical; settings: read-out: % enzyme activity, 1 μM; Run 1, Run 2
[8] = molecular target: T4, NEK5 (Homo sapiens, UniProt Q6P3R8); test: biochemical; settings: read-out: % enzyme activity, 1 μM; Run 1, Run 2
T4 sequence (Q6P3R8 1-708): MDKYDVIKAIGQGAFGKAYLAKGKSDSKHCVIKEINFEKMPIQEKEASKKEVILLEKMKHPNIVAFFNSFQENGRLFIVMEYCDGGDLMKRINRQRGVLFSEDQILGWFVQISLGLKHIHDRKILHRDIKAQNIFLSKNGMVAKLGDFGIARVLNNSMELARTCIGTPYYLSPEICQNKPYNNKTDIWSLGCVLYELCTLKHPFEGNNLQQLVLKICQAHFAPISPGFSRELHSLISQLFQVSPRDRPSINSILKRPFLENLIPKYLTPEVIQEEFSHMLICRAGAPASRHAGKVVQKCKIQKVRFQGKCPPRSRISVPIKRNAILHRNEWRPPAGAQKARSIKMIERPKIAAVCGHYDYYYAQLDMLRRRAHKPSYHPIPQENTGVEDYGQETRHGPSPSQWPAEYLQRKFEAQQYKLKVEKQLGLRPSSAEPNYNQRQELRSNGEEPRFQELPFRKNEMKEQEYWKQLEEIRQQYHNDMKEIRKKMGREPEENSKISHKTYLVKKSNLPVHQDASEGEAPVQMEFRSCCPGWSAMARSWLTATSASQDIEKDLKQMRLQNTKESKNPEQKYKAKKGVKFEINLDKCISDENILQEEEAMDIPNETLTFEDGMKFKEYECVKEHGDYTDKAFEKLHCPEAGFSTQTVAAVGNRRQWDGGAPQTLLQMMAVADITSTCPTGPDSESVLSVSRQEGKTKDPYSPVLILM

[9] = molecular target: RET (Homo sapiens, UniProt P07949); test: biochemical; settings: read-out: % enzyme activity, 1 μM; Run 1, Run 2
[10] = molecular target: RIPK2 (Homo sapiens, UniProt O43353); test: biochemical; settings: read-out: % enzyme activity, 1 μM; Run 1, Run 2
[11] = molecular target: WNK1 (Homo sapiens, UniProt Q9H4A3); test: biochemical; settings: read-out: % enzyme activity, 1 μM; Run 1, Run 2

Chain of CDK19/cyclin C (Q9BWU1 whole entry): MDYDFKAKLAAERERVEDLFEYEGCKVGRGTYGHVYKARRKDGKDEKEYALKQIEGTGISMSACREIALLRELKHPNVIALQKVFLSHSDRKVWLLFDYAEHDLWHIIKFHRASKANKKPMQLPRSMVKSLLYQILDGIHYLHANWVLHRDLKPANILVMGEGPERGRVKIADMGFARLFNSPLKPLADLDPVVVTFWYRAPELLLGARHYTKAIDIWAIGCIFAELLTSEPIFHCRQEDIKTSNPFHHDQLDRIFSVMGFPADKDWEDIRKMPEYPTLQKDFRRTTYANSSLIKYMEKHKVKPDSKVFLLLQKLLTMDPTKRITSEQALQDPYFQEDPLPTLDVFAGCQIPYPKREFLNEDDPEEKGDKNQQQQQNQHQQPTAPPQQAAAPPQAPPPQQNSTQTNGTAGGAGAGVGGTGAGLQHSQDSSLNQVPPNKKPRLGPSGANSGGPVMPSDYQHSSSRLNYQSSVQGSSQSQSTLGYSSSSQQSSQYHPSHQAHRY
Chain of CDK19/cyclin C (P24863 whole entry partner): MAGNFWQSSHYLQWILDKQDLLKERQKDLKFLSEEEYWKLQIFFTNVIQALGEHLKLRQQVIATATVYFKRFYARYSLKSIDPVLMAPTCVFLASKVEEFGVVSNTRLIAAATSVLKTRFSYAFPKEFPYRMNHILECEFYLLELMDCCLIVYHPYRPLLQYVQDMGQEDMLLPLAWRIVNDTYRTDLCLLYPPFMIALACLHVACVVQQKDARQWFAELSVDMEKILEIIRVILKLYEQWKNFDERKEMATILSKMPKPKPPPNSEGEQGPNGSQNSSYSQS
Chain of RIPK2 (O43353 whole entry): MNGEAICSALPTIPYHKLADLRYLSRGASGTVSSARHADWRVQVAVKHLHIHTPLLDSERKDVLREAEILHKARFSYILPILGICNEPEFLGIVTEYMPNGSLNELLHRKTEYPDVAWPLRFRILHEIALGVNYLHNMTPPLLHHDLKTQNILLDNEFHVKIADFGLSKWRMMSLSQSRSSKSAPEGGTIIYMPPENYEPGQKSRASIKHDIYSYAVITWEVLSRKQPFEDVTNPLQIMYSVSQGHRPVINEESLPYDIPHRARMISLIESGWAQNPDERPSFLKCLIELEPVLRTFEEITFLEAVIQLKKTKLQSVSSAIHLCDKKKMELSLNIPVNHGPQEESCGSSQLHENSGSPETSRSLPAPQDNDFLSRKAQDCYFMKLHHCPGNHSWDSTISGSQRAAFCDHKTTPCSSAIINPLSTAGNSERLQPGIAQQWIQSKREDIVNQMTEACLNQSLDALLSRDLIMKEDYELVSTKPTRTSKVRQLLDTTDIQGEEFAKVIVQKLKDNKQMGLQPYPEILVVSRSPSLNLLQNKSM
Chain of CDK17/cyclin Y (PCTK2) (Q00537 whole entry): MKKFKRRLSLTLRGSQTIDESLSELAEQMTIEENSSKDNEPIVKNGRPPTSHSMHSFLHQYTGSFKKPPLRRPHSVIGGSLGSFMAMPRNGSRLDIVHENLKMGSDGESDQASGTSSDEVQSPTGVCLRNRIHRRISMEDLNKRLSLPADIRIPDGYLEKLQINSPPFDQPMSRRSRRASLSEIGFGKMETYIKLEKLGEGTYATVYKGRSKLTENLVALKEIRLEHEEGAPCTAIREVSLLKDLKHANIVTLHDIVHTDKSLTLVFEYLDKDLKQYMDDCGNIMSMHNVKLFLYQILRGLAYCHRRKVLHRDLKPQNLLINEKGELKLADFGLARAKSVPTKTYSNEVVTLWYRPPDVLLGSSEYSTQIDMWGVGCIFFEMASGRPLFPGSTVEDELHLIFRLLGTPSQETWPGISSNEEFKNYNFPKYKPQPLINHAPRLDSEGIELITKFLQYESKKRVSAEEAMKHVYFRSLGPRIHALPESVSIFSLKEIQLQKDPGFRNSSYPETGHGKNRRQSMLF
Chain of CDK17/cyclin Y (PCTK2) (Q8ND76 whole entry partner): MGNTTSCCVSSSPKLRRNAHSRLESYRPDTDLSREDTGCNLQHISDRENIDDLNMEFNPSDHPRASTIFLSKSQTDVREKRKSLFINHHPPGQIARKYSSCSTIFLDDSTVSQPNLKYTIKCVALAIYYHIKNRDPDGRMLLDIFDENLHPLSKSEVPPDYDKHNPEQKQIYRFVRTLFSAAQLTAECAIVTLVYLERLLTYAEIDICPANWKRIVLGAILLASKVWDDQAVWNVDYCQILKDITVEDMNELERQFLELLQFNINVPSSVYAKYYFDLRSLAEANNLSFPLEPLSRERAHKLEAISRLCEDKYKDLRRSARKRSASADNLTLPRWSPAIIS
Chain of CAMK1g (Q96NX5 whole entry): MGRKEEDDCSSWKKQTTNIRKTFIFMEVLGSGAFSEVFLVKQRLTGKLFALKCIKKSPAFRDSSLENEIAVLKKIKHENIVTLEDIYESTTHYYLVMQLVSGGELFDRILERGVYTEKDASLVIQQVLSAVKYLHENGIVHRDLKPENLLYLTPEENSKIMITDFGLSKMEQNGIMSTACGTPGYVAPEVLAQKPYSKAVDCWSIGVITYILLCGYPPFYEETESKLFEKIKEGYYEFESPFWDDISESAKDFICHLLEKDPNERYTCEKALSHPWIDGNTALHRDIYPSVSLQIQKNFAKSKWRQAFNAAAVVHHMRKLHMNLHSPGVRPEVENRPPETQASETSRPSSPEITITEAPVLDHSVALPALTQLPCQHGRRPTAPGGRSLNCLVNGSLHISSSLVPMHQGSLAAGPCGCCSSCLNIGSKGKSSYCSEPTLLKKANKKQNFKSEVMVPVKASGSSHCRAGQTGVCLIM
Chain of RET (P07949 29-1114): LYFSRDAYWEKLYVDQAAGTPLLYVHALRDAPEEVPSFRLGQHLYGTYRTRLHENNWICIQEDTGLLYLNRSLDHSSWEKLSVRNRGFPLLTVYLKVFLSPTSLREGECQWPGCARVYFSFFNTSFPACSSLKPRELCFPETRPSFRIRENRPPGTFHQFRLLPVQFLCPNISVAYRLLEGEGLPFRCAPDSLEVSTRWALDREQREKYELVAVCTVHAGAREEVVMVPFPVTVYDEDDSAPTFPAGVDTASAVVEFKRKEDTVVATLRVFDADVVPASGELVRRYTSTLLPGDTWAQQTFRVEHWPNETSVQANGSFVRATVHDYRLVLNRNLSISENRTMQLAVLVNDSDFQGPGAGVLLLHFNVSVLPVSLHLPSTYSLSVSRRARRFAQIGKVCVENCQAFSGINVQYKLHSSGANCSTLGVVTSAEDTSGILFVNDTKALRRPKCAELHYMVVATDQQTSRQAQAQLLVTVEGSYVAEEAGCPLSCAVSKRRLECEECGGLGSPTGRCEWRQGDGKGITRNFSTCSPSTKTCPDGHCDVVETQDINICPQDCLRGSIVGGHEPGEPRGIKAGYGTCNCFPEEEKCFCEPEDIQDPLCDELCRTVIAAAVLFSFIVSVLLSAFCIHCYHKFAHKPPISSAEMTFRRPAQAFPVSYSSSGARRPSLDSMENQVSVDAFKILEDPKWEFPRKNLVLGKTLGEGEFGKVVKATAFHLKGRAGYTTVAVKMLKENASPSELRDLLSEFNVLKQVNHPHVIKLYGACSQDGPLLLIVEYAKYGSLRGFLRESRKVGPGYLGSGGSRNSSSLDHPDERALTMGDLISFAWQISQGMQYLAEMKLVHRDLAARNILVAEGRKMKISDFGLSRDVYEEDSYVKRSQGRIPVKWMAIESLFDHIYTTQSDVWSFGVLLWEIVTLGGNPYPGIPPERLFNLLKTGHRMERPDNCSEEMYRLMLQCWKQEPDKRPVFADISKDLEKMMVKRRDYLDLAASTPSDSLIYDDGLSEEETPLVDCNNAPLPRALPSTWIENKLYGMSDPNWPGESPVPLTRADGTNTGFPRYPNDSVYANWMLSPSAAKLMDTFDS

Compound | % enzyme activity [1] [%] | % enzyme activity [2] [%] | % enzyme activity [3] [%] | % enzyme activity [4] [%] | remaining activity at 1 µM [5] [%] | remaining activity at 1 µM [6] [%] | remaining activity at 1 µM [7] [%] | remaining activity at 1 µM [8] [%] | remaining activity at 1 µM [9] [%] | remaining activity at 1 µM [10] [%] | remaining activity at 1 µM [11] [%]
COc1cc(-c2cncc(-c3ccc(N4CCN(C)CC4)cc3)c2C)cc(F)c1C(N)=O [Compound 26a, 2-Fluoro-6-methoxy-4-(4-methyl-5-(4-(4-methylpiperazin-1-yl)phenyl)pyridin-3-yl)benzamide] | 77.81 | 93.57 | 99.24 | 93.48 | 102 | 96.1 | 60.1 | 98.7 | 94.4 | 71.1 | 108
COc1cc(-c2cncc(-c3ccc(N4C[C@@H](C)N(C)[C@@H](C)C4)cc3)c2C)cc(F)c1C(N)=O [Compound 26c, 2-Fluoro-6-methoxy-4-(4-methyl-5-(4-((3R,5S)-3,4,5-trimethylpiperazin-1-yl)phenyl)pyridin-3-yl)benzamide] | 85.09 | 100.00 | 90.55 | 95.22 | 108 | 101 | 78.3 | 93.2 | 96 | 89.7 | 104

From article PMC8213057, “Targeting ALK2: An Open Science Approach to Developing Therapeutics for the Treatment of Diffuse Intrinsic Pontine Glioma” (Journal of Medicinal Chemistry, 2020)
